According to EP1101492A1, “NOVEL REMEDIES FOR ALLERGIC DISEASES” (FUJI YAKUHIN KOGYO KABUSHIKI KAISHA, priority 1998, dated 2000):

How the values were obtained:
[1] = system: allergic peritonitis; test: Allergic peritonitis induced with ragweed pollen extract (peritoneal exudate cells); assay type: in vivo, Balb/c mice; conditions: ragweed pollen extract challenge; 30 mg/kg i.p. 5 minutes prior to induction, 3, 6 and 12 hours post-induction; 24 hours after induction
Protocol: Each efficacy on allergic peritonitis was examined according to methods as disclosed in Ouchi et al., "Seibutsu Yakukagaku Jikken Koza, Ensho To Allergy (Inflammation and Allergy) I-3", pp.139 to 151, Hirokawa Publishing Co., Japan and Spicer et al., The International Archives of Allergy and Applied Immunology, 81: 81 to 84, 1986.
A ragweed (Ambrosia artemisiaefolia) pollen extract (1:100, Torii Pharmaceutical Co., Ltd.) was diluted 10-fold with physiological saline and administered subcutaneously to male Balb/c mice (7 weeks old, 20 to 23 g, purchased from JAPAN SLC, Inc.) on Days 0 and 1 at a single dose of 0.1 mL and further on Days 6, 8 and 14 at a single dose of 0.2 mL for sensitization. On Day 20 after the initial sensitization, an antigen solution for induction (a mixture of the aforementioned 10-fold diluted ragweed pollen extract, 50 units/mL of penicillin G potassium, and 0.05 mg/mL of streptomycin sulfate) was administered intraperitoneally to each animal at a dose of 0.2 mL to raise allergic peritonitis. […]
Twenty four hours after induction, mice were sacrificed under ether […] and each penitoneal cavity was lavaged twice or thrice with a washout medium (total volume: 5 mL, physiological saline containing 10 units/mL of heparin). […] The retrieved washout medium was measured for its yield (mL) and the number of exudate cells therein by using Turk solution and counting on a haemocytometer and a total number of PEC was calculated. […] After staining, PEC was subjected to fractional counts under a microscope with classification into eosinophils, neutrophils, lymphocytes/macrophages and basophils based on their form and stain nature (more than 500 PEC per specimen were randomly counted). […] After counting, intraperitoneal exudation inhibition rates were calculated by the following formula and expressed as the therapeutic efficacies: Inhibition Rate (%) =[1 -((PEC in Sensitized/Drug-Treated Mouse) - (PEC in Unsensitized/Saline-Treated Mouse))/((PEC in Sensitized/Saline-Treated Mouse) - (PEC in Unsensitized/Saline-Treated Mouse))]× 100 [formula]

[2] = system: mouse contact-type (type IV) dermatitis models; test: Type IV allergic dermatitis (oxazolone-induced auricle edema); assay type: in vivo, Balb/c mice; conditions: 50 mg/mL in ethanol
Protocol: Mice (male, Balb/c, 6 weeks old, 20 to 25 g) were sensitized by painting a 3% solution of oxazolone (100 µL) abdominally. Six days after sensitization, a 0.5% solution of oxazolone in acetone was painted on both sides of a right ear at a dose of 10 µL to raise auricle edema. An untreated group was painted with the solvent (acetone) alone onto both sides of a left ear of the same mouse at 10 µL. At 24 hours after edema-induction, each mouse was sacrificed with ether and an equivalent each of right and left auricles was stamped out with a puncher (diameter: 6 mm). Both left and right auricle sections were measure for their weight and each percent edema was calculated (Kazuo Ouchi (Ed.), "Seibutsu Yakukagaku Jikken Koza, Ensho To Allergy (Inflammation and Allergy) I-1", 1993, Hirokawa Publishing Co., Japan) Percent Edema (%) =((Right Auricular Segment Weight - Left Auricular Segment Weight))/(Left Auricular Segment Weight)× 100 [formula]
The solvent (ethanol) alone was painted on a left auricle at the same dose (treated group). Unsensitized mice were also treated for induction similarly and then treated with the compound of the present invention, only followed by examination for the potency of the compound of the present invention on auricles (unsensitized group). The number of animals used in the test was set 4 per group. […]

[3] = system: guinea pig allergic rhinitis models; test: Allergic rhinitis model: nasal airway resistance; assay type: in vivo, Guinea pigs; conditions: 15 mg/kg s.c. one hour prior to rhinitis-induction; N=5; recorded 20 minutes after antigen-challenge
Protocol: Guinea pigs (male, Std:Hartley, 3 weeks old) were housed and fed in a aluminum cage at a rate of up to 5 animals per cage. After acclimatization for 1 week, the guinea pigs were administered intravenously with an anti-ovalbumin antibody (Nihon Bioresearch Inc., Hajima Institute; antibody titer by a 3-hour homologous passive cutaneous anaphylaxis reaction, 1 : 8192) prepared according to the Orange & Moore method (Orange, R. P. and Moore, E. G., The Journal of Immunology 116: p.392-397, 1976) into their auricle vein at a dose of 0.3 mL/animal for passive sensitization. Twenty four to twenty six hours after sensitization under conditions of fast and free access to drinking water, the sensitized guinea pigs were anesthetized with urethane (1.2 g/kg, intraperitoneal administration), fixed in a supine position, and mediad excised cervically to expose tracheas. […] Variations of the ventilatory overflow were quantitatively recorded on a recticoder (RECTI-HORIZ-8K, Nippon Denki Sanei K.K.) for 20 minutes after antigen-challenge.
Wave height (cm) was measured on recorded papers and a nasal airway resistance value was calculated according to the following formula: Percent Increase (%) in Nasal Airway Resistance =((Observed Value) - (Value prior to Administration))/((Complete Obstruction)- (Value prior to Administration))× 100 [formula] […]

## CNC(=O)[C@H](Cc1ccc(NC(=N)N)cc1)NC(=O)[C@H](CC(C)C)C(CCCc1ccccc1)C(=O)NO (single isomer, unassigned) [Compound No. 130, N-[4-(N-Hydroxyamino)-2(R)-isobutyl-3(R or S)-(3-phenyltrimethylene)succinyl)-L-4'-guanidophenylalanine-N-methylamide 1 acetate]
[1]
  decrease in total PEC number: 143.8%
  inhibition of infiltration of eosinophils into the peritoneal cavity: 57.2%
  inhibition of infiltration of lymphocytes/macrophages into the peritoneal cavity: 219.0%
[2]; 10 µL per side painted on right auricle 0.5 hr prior to and 6 hours after edema-induction, 24 hours after induction
  development of auricle edemas (FIG. 13): amelioration of auricle edemas
[2]; unsensitized mice, 10 µL per side painted twice
  effect of the compound alone on auricles (FIG. 13): almost free of swelling and/or thinning
[3]
  increase in nasal airway resistance due to antigen challenge (FIG. 15): markedly ameliorates an increase in nasal airway resistance
